Measured values as given in paper PMC11053489 (Viruses, 2024).
Like-named read-outs stand apart in the source and are kept apart here.

Key:
[1] = following an IV infusion of remdesivir over 2 h, in vivo; cited from earlier work
[2] = system: SARS-CoV-2 (hCoV-19/USA-WA1/2020) in Vero CCL-81 cells; experiment: microbe, parasite or virus in culture; assay type: cell-based; conditions: for EC50: read-out: Vero CCL-81 SARS-CoV-2 EC50; for EC90: read-out: Vero CCL-81 SARS-CoV-2 EC90
in vitro [3] = conditions: African green monkey
CCRF-CEM cells [4] = system: CCRF-CEM cells
in vitro [5] = conditions: human
in vitro [6] = conditions: human; remark: listed apart in the source
in vitro [7] = conditions: human, Caco-2
[8] = system: SARS-CoV-2 (hCoV-19/USA-WA1/2020) in Calu-3 cells; experiment: microbe, parasite or virus in culture; assay type: cell-based; conditions: for EC50: read-out: Calu-3 SARS-CoV-2 EC50; for EC90: read-out: Calu-3 SARS-CoV-2 EC90
[9] = system: primary human peripheral blood mononuclear cells (PBM)
[10] = system: SARS-CoV-2 (hCoV-19/USA-WA1/2020) in Caco-2 cells; experiment: microbe, parasite or virus in culture; conditions: Severe acute respiratory syndrome coronavirus 2, Caco-2, 72 h; for EC50: read-out: Caco-2 SARS-CoV-2 EC50; for EC90: read-out: Caco-2 SARS-CoV-2 EC90
[11] = cited from earlier work
Huh-7 cells [12] = system: Huh-7 cells
[13] = human, in vivo
[14] = cited from earlier work; remark: listed apart in the source
[15] = system: SARS-CoV-2 (hCoV-19/USA-WA1/2020) in Caco-2 cells
in vitro [16] = conditions: human; remark: listed apart in the source
in vitro [17] = conditions: human; remark: listed apart in the source
[18] = Peak plasma concentration
[19] = MTS cytotoxicity assay, CEM cells; conditions: human
[20] = MTS cytotoxicity assay, Calu-3 cells; conditions: human
[21] = MTS cytotoxicity assay, Vero CCL-81 cells; conditions: African green monkey
[22] = MTS cytotoxicity assay, Caco-2 cells; conditions: human
[23] = MTS cytotoxicity assay, Huh-7 cells; conditions: human
[24] = MTS cytotoxicity assay, PBM cells; conditions: human
[25] = system: COVID-19 / SARS-CoV-2 infection; conditions: cited from earlier work
[26] = African Green monkeys, oral; cited from earlier work
[27] = primary hepatocytes; cited from earlier work
[28] = human astrocytes and hBTEC; cited from earlier work
CCRF-CEM cells [29] = experiment: MTS cytotoxicity assay, CEM cells; conditions: read-out: CEM CC50; 4 days
Huh-7 cells [30] = experiment: MTS cytotoxicity assay, Huh-7 cells; conditions: read-out: Huh7 CC50; 4 days
[31] = system: primary human peripheral blood mononuclear cells (PBM); experiment: MTS cytotoxicity assay, PBM cells; conditions: read-out: PBM CC50; 5 days
[32] = Severe acute respiratory syndrome coronavirus 2, 48 h
[33] = Severe acute respiratory syndrome coronavirus 2, Calu-3, 72 h
[34] = Severe acute respiratory syndrome coronavirus 2, Table 1 drugs, MOI 0.1, 48 h, 2% FBS
[35] = Severe acute respiratory syndrome coronavirus 2, Calu-3, MOI 0.01, 72 h, 2% FBS
[36] = Table 1, ref column Refs of Table 1

N#C[C@@]1(c2ccc3c(N)ncnn23)O[C@H](COP(=O)(O)OP(=O)(O)OP(=O)(O)O)[C@@H](O)[C@H]1O [GS-441524-TP]
t1/2 of GS-441524-TP in human blood mononuclear cells [1]: 36 to 43 h

O=c1c2ccccc2[se]n1-c1ccccc1 [Ebselen]
EC50 [2, 32]: 1.1 µM
EC90 [2, 32]: 2.7 µM
CC50 at 3 days (in vitro [3]): 22.4 µM
CEM CC50 {Unbound} (CCRF-CEM cells [4]; human, 4 days): 42.3 µM
CC50 at 5 days (in vitro [5]): 93.2 µM
CC50 at 3 days (in vitro [6]): > 100 µM
Vero CC50 {Unbound} (Vero CCL-81 cells; African green monkey, 3 days): 20.3 µM
CC50 at 3 days (in vitro [7]): > 100 µM
EC50 [8, 33]: 6.5 µM
EC90 [8, 33]: > 10 µM
PBM CC50 {Unbound} ([9]; human, 5 days): 75.5 µM
EC50 [10]: > 100 µM
Fun (unbound fraction of drug in plasma) ([11]; plasma): 0.05
Huh7 CC50 {Unbound} (Huh-7 cells [12]; human, 4 days): 76.3 µM
Cmax (μM) {unbound} [13]: 0.013 µM

O=c1nc(NO)ccn1[C@@H]1O[C@H](CO)[C@@H](O)[C@H]1O [NHC, β-D-N4-hydroxycytidine]
CC50 (Calu-3 cells): > 100 µM
CC50 (Caco-2 cells): > 100 µM
plasma t1/2 ([14]; in vivo, iv): 3.3 h
CC50 (Vero CCL-81 cells): 18.8 µM
CC50 [9]: 59.8 µM
CC50 (Huh-7 cells [12]): 59.1 µM

NC(=O)c1nc(F)c[nH]c1=O [Favipiravir]
EC50 [2, 34]: 90.6 µM
EC90 [2, 34]: 234 µM
CC50 at 3 days (in vitro [3]): > 100 µM
Caco-2 Unbound Cmax/EC50 ([15]; Caco-2): 0.74
CC50 at 4 days (in vitro [16]): > 100 µM
CC50 at 4 days (in vitro [17]): > 100 µM
CC50 at 5 days (in vitro [5]): > 100 µM
CC50 at 3 days (in vitro [6]): > 300 µM
CC50 at 3 days (in vitro [7]): > 300 µM
EC50 [8, 35]: > 300 µM
EC50 [10]: 256 µM
EC90 [10]: > 300 µM
Cmax (μM) {unbound} [13]: 193 µM

CC(c1cc2ccccc2s1)N(O)C(N)=O (stereo not shown) [Zileuton]
EC50 [2, 34]: 6.7 µM
EC90 [2, 34]: 35.8 µM
CC50 at 3 days (in vitro [3]): > 100 µM
Caco-2 Unbound Cmax/EC50 ([15]; Caco-2): 0.003
CC50 at 4 days (in vitro [16]): > 100 µM
CC50 at 4 days (in vitro [17]): > 100 µM
CC50 at 5 days (in vitro [5]): > 100 µM
CC50 at 3 days (in vitro [6]): 46.7 µM
CC50 at 3 days (in vitro [7]): > 100 µM
EC50 [8, 35]: > 100 µM
EC50 [10]: > 100 µM
Fun (unbound fraction of drug in plasma) [11, 36]: 0.07
Cmax (μM) {unbound} [13]: 0.16 µM

COCCCC/C(=N\OCCN)c1ccc(C(F)(F)F)cc1 [Fluvoxamine (maleate)]
EC50 [2, 34]: > 100 µM
anti-SARS-CoV-2 activity (in words), concentrations up to 100 μM ([2]; Vero CCL-81 cells, up to 100 μM): inactive
Caco-2 Unbound Cmax/EC50 ([15]; Cmax × Fun/EC50): 0.0017
Cmax (μM) {unbound} ([18]; human, in vivo): 0.003 µM
CC50 at 4 days ([19]; CEM CC50, 4 days): 20 µM
CC50 at 3 days [20]: > 100 µM
CC50 at 3 days [21]: 35.5 µM
CC50 at 3 days [22]: > 100 µM
EC50 [8, 35]: > 100 µM
CC50 at 4 days [23]: 36.7 µM
EC50 [10]: 17.9 µM
EC90 [10]: 47.5 µM
Fun (unbound fraction of drug in plasma) [11, 36]: 0.23
CC50 at 5 days [24]: 35.4 µM

CCC(CC)COC(=O)[C@H](C)N[P@](=O)(OC[C@H]1O[C@@](C#N)(c2ccc3c(N)ncnn23)[C@H](O)[C@@H]1O)Oc1ccccc1 [Remdesivir]
EC50 [2, 34]: 3.2 µM
EC90 [2, 34]: 4.7 µM
CC50 (in vitro [3]): > 100 µM
Caco-2 Unbound Cmax/EC50 ([15]; Caco-2): 22
Cmax (μM) {unbound} ([18]; Table 1, Cmax × Fun): 0.44 µM
shortening of hospitalization duration ([25]; IV remdesivir, hospitalized patients with COVID-19, ACTT-1 trial): 5 days
reduction in hospitalizations ([25]; IV, 3-day course, high-risk non-hospitalized patients, PINETREE trial): 87%
plasma t1/2 ([14]; remdesivir following IV infusion): ~ 1 h
fraction of orally administered drug entering the systemic circulation intact [26]: < 1%
CC50 (in vitro [7]): > 100 µM
EC50 [8, 35]: 0.2 µM
EC90 [8, 35]: 0.7 µM
EC50 [10]: 0.02 µM
EC90 [10]: 0.1 µM
Fun (unbound fraction of drug in plasma) [11, 36]: 0.12

O=c1nc(NO)ccn1[C@@H]1O[C@H](COP(=O)(O)OP(=O)(O)OP(=O)(O)O)[C@@H](O)[C@H]1O [NTP of NHC]
cellular t1/2 [27]: 24 to 66 min
cellular t1/2 [28]: 4 to 5 h

COC(=O)N[C@H](C(=O)N1CCC[C@H]1c1nc(-c2ccc(-c3ccc(-c4c[nH]c([C@@H]5CCCN5C(=O)[C@@H](NC(=O)OC)C(C)C)n4)cc3)cc2)c[nH]1)C(C)C [Daclatasvir]
EC50 [2, 34]: 0.7 µM
EC90 [2, 34]: 3.5 µM
CC50 (in vitro [3]): 50.6 µM
Caco-2 Unbound Cmax/EC50 ([15]; Caco-2): 0.0005
Cmax (μM) {unbound} ([18]; Table 1, Cmax × Fun): 0.02 µM
CEM CC50 {Unbound} (CCRF-CEM cells [4]; human): 26.2 {23.6} μM
Vero CC50 {Unbound} (Vero CCL-81 cells; African green monkey): 50.6 {45.6} μM
CC50 (in vitro [7]): 67.6 µM
EC50 [8, 35]: > 100 µM
PBM CC50 {Unbound} ([9]; human): 36.4 {29.2} μM
EC50 [10]: 44.7 µM
EC90 [10]: 89.4 µM
Fun (unbound fraction of drug in plasma) [11, 36]: 0.01
Huh7 CC50 {Unbound} (Huh-7 cells [12]; human): 53.6 {48.3} μM

Iota-Carrageenan
EC90 [2]: 1.6 µM
EC90 ([15]; Caco-2): 93.3 µM
CC50 (CCRF-CEM cells [29]): 95.9 µM
absolute risk reduction ([25]; topical nasal spray, 300 hospital personnel): 4%
CC50 (Calu-3 cells): > 100 µM
CC50 (Caco-2 cells): > 100 µM
EC90 [8]: 1.9 µM
CC50 (Huh-7 cells [30]): > 100 µM
CC50 [31]: > 100 µM

Cc1cccc(Nc2ccccc2C(=O)O)c1C [Mefenamic acid]
EC50 [2, 34]: 87.6 µM
EC90 [2, 34]: > 100 µM
Cmax (μM) {unbound} ([18]; human, in vivo): 1.58 µM
CC50 at 4 days [19]: > 100 µM
CC50 at 3 days [20]: > 100 µM
higher probability of achieving patient-acceptable symptoms on day 8 ([25]; with standard medical care versus placebo plus standard care, 38 ambulatory individuals): about 16 fold
CC50 at 3 days [21]: > 100 µM
CC50 at 3 days [22]: > 100 µM
EC50 [8, 35]: > 100 µM
CC50 at 4 days [23]: > 100 µM
EC50 [10]: > 100 µM
Fun (unbound fraction of drug in plasma) [11, 36]: 0.1
CC50 at 5 days [24]: > 100 µM

CC(C)(C)[C@H](NC(=O)C(F)(F)F)C(=O)N1C[C@H]2[C@@H]([C@H]1C(=O)N[C@H](C#N)C[C@@H]1CCNC1=O)C2(C)C [Nirmatrelvir]
EC50 [2, 32]: 3.7 µM
EC90 [2, 32]: 5.6 µM
CC50 (in vitro [3]): > 100 µM
Caco-2 Unbound Cmax/EC50 ([15]; Caco-2): 6.8
Cmax (μM) {unbound} ([18]; Table 1, Cmax × Fun): 2.13 µM
CC50 (in vitro [16]; CEM CC50, 4 days): > 100 µM
CC50 (in vitro [17]): > 100 µM
CC50 (in vitro [5]): > 100 µM
CC50 (in vitro [6]): > 100 µM
CC50 (in vitro [7]): > 100 µM
EC50 [8, 33]: 1.8 µM
EC90 [8, 33]: 8.8 µM
EC50 [10]: 0.1 µM
EC90 [10]: 0.3 µM
Fun (unbound fraction of drug in plasma) [11, 36]: 0.31

Ivermectin
EC50 [2]: 2.1 µM
EC90 [2]: 4.5 µM
Caco-2 Unbound Cmax/EC50 ([15]; Caco-2): 0.005
EC90 ([15]; Caco-2): 8.9 µM
EC50 ([15]; read-out: Caco-2 SARS-CoV-2 EC50): 4.5 µM
CC50 (CCRF-CEM cells [29]): 12 µM
CEM CC50 {Unbound} (CCRF-CEM cells [4]): 12 {9.5} μM
CC50 (Calu-3 cells): 17.5 µM
CC50 (Caco-2 cells): 5.8 µM
CC50 (Vero CCL-81 cells): 35.2 µM
Vero CC50 {Unbound} (Vero CCL-81 cells): 35.2 {31.9} μM
EC50 [8]: 6.2 µM
EC90 [8]: 9.3 µM
PBM CC50 {Unbound} [9]: 29.2 {23.8} μM
CC50 (Huh-7 cells [30]): 5.6 µM
Fun (unbound fraction of drug in plasma) [11, 36]: 0.07
CC50 [31]: 29.2 µM
Huh7 CC50 {Unbound} (Huh-7 cells [12]): 5.6 {5.1} μM
